Assay results taken from article PMC6934184, “Selective DNA-PKcs inhibition extends the therapeutic index of localized radiotherapy and chemotherapy” (The Journal of Clinical Investigation, 2019).

Target: T1, MYO3B (MYO3 beta) (Homo sapiens, UniProt Q8WXR4)
T1 construct: purchased Thermo Fisher Scientific (Life Technologies) SelectScreen
Assay: SelectScreen LanthaScreen
Format: binding
Conditions: read-out: % displacement
In short: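 SelectScreen broad panel; activity (Z'LYTE, Adapta) plus binding formats. ATP: Km app for CSF1R Z'LYTE; 10 for CAMK1 Adapta. Readout = % per kinase.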

T1 sequence (Q8WXR4 whole entry): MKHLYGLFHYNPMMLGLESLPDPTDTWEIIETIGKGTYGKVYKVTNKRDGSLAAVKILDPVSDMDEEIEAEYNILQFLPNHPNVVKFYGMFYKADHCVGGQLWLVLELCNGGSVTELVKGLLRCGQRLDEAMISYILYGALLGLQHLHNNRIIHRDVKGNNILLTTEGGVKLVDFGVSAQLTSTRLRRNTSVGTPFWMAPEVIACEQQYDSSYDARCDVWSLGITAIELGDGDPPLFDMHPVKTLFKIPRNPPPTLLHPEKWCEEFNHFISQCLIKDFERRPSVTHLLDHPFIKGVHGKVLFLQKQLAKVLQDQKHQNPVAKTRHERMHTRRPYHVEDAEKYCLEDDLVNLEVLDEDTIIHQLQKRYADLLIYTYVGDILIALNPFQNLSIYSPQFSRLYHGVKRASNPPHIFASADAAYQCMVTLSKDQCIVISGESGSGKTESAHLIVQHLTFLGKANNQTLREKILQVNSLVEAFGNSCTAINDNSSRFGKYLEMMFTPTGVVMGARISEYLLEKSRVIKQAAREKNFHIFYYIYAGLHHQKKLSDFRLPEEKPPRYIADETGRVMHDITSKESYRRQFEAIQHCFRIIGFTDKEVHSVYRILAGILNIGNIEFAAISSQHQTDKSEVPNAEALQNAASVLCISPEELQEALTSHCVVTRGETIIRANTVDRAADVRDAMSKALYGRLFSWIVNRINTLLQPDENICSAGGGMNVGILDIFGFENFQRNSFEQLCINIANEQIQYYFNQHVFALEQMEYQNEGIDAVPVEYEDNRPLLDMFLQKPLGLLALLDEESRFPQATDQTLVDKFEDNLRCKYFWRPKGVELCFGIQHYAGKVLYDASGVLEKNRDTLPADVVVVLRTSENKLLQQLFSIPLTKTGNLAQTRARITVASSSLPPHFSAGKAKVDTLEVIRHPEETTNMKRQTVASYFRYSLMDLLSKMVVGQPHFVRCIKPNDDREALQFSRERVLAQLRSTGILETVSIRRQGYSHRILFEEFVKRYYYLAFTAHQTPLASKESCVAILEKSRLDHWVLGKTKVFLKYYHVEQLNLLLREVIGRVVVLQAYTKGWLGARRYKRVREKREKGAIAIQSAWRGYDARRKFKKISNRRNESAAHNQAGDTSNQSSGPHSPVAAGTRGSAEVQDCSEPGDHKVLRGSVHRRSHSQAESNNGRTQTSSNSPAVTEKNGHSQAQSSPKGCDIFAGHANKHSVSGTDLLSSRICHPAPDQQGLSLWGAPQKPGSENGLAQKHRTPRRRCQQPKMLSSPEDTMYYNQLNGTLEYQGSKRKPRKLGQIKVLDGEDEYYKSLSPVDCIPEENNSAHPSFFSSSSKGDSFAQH

For `CN(C(=O)CN1CCOCC1)c1ccc2sc3c(-c4cccc5c(=O)cc(N6CC7CCC(C6)O7)oc45)cccc3c2c1` [NU5455], the inhibition at 1 µM was 2.3%.
